Assay results reported in PubChem BioAssay (NCI).
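These data come from cells grown in 96-well plates and exposed to compound for 48 hours at five concentrations. TGI marks complete inhibition of growth.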

How the values were obtained:
Experiment in all cases: inhibition of tumour cell growth, NCI panel, 48 h
HCT-116 colon = system: HCT-116 colon
HCT-15 colon = system: HCT-15 colon
HL-60(TB) leukemia = system: HL-60(TB) leukemia
HOP-62 NSCLC = system: HOP-62 NSCLC
IGROV1 ovarian = system: IGROV1 ovarian
M14 melanoma = system: M14 melanoma
MALME-3M melanoma = system: MALME-3M melanoma
NCI-H23 lung = system: NCI-H23 lung
SK-MEL-5 melanoma = system: SK-MEL-5 melanoma
SK-OV-3 ovarian = system: SK-OV-3 ovarian
SNB-75 CNS = system: SNB-75 CNS
UACC-62 melanoma = system: UACC-62 melanoma
MDA-MB-231 breast = system: MDA-MB-231 breast
T-47D breast = system: T-47D breast

CC(=O)O/N=C/c1ncccc1OC(C)=O
TGI (HCT-116 colon): > 100 µM
TGI (HCT-15 colon): > 100 µM
TGI (HL-60(TB) leukemia): > 100 µM
TGI (HOP-62 NSCLC): > 100 µM
TGI (IGROV1 ovarian): > 100 µM
TGI (M14 melanoma): > 100 µM
TGI (MALME-3M melanoma): > 100 µM
TGI (NCI-H23 lung): > 100 µM
TGI (SK-MEL-5 melanoma): > 100 µM
TGI (SK-OV-3 ovarian): > 100 µM
TGI (SNB-75 CNS): > 100 µM
TGI (UACC-62 melanoma): > 100 µM

CCCn1c(SCC)c2ccccc2c1-c1nc(F)nc(F)n1
TGI (HCT-116 colon): > 100 µM
TGI (HCT-15 colon): > 100 µM
TGI (HL-60(TB) leukemia): > 100 µM
TGI (HOP-62 NSCLC): > 100 µM
TGI (M14 melanoma): > 100 µM
TGI (MALME-3M melanoma): > 100 µM
TGI (NCI-H23 lung): > 100 µM

CC1(C2(C)OC(=O)c3ccccc32)OC(=O)c2ccccc21 (stereo not given)
TGI (HCT-116 colon): > 100 µM
TGI (HCT-15 colon): > 100 µM
TGI (HL-60(TB) leukemia): > 100 µM
TGI (HOP-62 NSCLC): > 100 µM
TGI (IGROV1 ovarian): > 100 µM
TGI (M14 melanoma): > 100 µM
TGI (MDA-MB-231 breast): > 100 µM
TGI (NCI-H23 lung): > 100 µM
TGI (SK-MEL-5 melanoma): > 100 µM
TGI (SK-OV-3 ovarian): > 100 µM
TGI (SNB-75 CNS): > 100 µM
TGI (T-47D breast): > 100 µM
TGI (UACC-62 melanoma): > 100 µM

Cc1cccc2c1Oc1cc(Cl)ccc1C2NC(=O)CCN1CCN(CCO)CC1 (stereo not given)
TGI (HCT-116 colon): 34.6 µM
TGI (HCT-15 colon): 34.1 µM
TGI (HL-60(TB) leukemia): 39 µM
TGI (HOP-62 NSCLC): 32.9 µM
TGI (IGROV1 ovarian): > 100 µM
TGI (M14 melanoma): 30.3 µM
TGI (MDA-MB-231 breast): 14.6 µM
TGI (NCI-H23 lung): 51.5 µM
TGI (SK-MEL-5 melanoma): 27 µM
TGI (SK-OV-3 ovarian): > 100 µM
TGI (SNB-75 CNS): 25.1 µM
TGI (T-47D breast): 34.2 µM
TGI (UACC-62 melanoma): 28.7 µM

C[C@H](Nc1c(O)c2c(c(O)c1Cl)C(=O)C=CC2=O)C(=O)Nc1ccc([N+](=O)[O-])cc1
TGI (HCT-116 colon): 2.7 µM
TGI (HCT-15 colon): 7.55 µM
TGI (HOP-62 NSCLC): 6.74 µM
TGI (IGROV1 ovarian): 4.22 µM
TGI (M14 melanoma): 2.53 µM
TGI (MALME-3M melanoma): 2.41 µM
TGI (MDA-MB-231 breast): 4.22 µM
TGI (NCI-H23 lung): 4.45 µM
TGI (SK-MEL-5 melanoma): 3.14 µM
TGI (SK-OV-3 ovarian): > 10 µM
TGI (SNB-75 CNS): > 10 µM
TGI (T-47D breast): > 10 µM
TGI (UACC-62 melanoma): 6.16 µM

COC(=O)C1=C(C(=O)OC)C2(OC(C)=O)c3ccccc3-c3ccccc3C12 (stereo not given)
TGI (HCT-116 colon): 7.98 µM
TGI (HCT-15 colon): 10.3 µM
TGI (HOP-62 NSCLC): 48.3 µM
TGI (IGROV1 ovarian): 10.1 µM
TGI (M14 melanoma): 9.47 µM
TGI (MALME-3M melanoma): 5.83 µM
TGI (NCI-H23 lung): 25.6 µM
TGI (SK-MEL-5 melanoma): 27.3 µM
TGI (SK-OV-3 ovarian): 29.1 µM
TGI (SNB-75 CNS): 24.4 µM
TGI (UACC-62 melanoma): 24.4 µM

CCCCC(=O)Nc1ccc2cc(C(=O)OC)c(ON3C(=O)c4ccccc4C3=O)nc2n1
TGI (HCT-116 colon): 45.9 µM
TGI (HCT-15 colon): > 100 µM
TGI (HOP-62 NSCLC): 37.6 µM
TGI (IGROV1 ovarian): 41 µM
TGI (M14 melanoma): 43.3 µM
TGI (MALME-3M melanoma): 38.5 µM
TGI (MDA-MB-231 breast): > 100 µM
TGI (NCI-H23 lung): > 100 µM
TGI (SK-MEL-5 melanoma): > 100 µM
TGI (SK-OV-3 ovarian): > 100 µM
TGI (SNB-75 CNS): 88.2 µM
TGI (T-47D breast): > 100 µM

COC1=CC(=O)[C@H]2[C@H](C)C(c3ccccc3)[C@@]2(C)C1=O (stereo not given in full)
TGI (HCT-15 colon): > 100 µM
TGI (HL-60(TB) leukemia): > 100 µM
TGI (HOP-62 NSCLC): > 100 µM
TGI (IGROV1 ovarian): > 100 µM
TGI (M14 melanoma): > 100 µM
TGI (MALME-3M melanoma): > 100 µM
TGI (NCI-H23 lung): > 100 µM
TGI (SK-MEL-5 melanoma): > 100 µM
TGI (SK-OV-3 ovarian): > 100 µM
TGI (SNB-75 CNS): > 100 µM
TGI (UACC-62 melanoma): > 100 µM

CCNC1(c2cccc(C)c2)OC(C)(C)c2cccc3cccc1c23 (stereo not given)
TGI (HCT-116 colon): 97.4 µM
TGI (HCT-15 colon): 42.9 µM
TGI (HL-60(TB) leukemia): 19.7 µM
TGI (HOP-62 NSCLC): 48.9 µM
TGI (IGROV1 ovarian): 37.5 µM
TGI (M14 melanoma): 38.1 µM
TGI (MALME-3M melanoma): 34.3 µM
TGI (NCI-H23 lung): 34 µM
TGI (SK-MEL-5 melanoma): 34.8 µM
TGI (SK-OV-3 ovarian): 37.9 µM
TGI (SNB-75 CNS): 30 µM
TGI (T-47D breast): > 100 µM
TGI (UACC-62 melanoma): 31 µM
